The values below are quoted from earlier work in patent US20160317442A1, “Nanosomal preparation of the complex formed by quercetin (or another flavonol, flavone or a derivative thereof) and 2-hydroxypropyl-beta-cyclodextrin for intravenous use in cerebral pathological conditions” (priority 2013, published 2016).

The structures appear in SMILES notation.

The conditions of the data set: aqueous preparations.

Regarding `O=c1c(O)c(-c2ccc(O)c(O)c2)oc2cc(O)cc(O)c12` [quercetin], the “detection of quercetin in the brain” value is given as “not detected”.
